How the values were obtained:
[1] = target: T1, Sigma intracellular receptor 2 (Homo sapiens, UniProt Q5BJF2); experiment: Displacement of [3H](+)-ditolylguanidine from human sigma 2 receptor transfected in human HEK293T cells assessed as inhibition constant in presence of (+)-pentazocine by radioligand competition binding assay; type: cell-based, HEK293
[2] = target: T2, Sigma non-opioid intracellular receptor 1 (Homo sapiens, UniProt Q99720); experiment: Displacement of [3H](+)-pentazocine from sigma 1 receptor in HEK293 cells assessed as inhibition constant by radioligand competition binding assay; type: cell-based
[3] = target: T1, Sigma intracellular receptor 2; experiment: Binding affinity to sigma 2 receptor (unknown origin) assessed as inhibition constant
[4] = target: T2, Sigma non-opioid intracellular receptor 1; experiment: Binding affinity to sigma 1 receptor (unknown origin) assessed as inhibition constant
[5] = target: T3, Sigma intracellular receptor 2 (Rattus norvegicus, UniProt Q5U3Y7); experiment: biochemical
T3 sequence (Q5U3Y7 whole entry): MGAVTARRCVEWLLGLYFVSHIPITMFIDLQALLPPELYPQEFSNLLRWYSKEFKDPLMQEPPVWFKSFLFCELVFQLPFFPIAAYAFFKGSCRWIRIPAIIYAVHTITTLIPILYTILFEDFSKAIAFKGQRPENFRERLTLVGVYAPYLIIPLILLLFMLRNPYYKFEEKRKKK
Description: Binding affinity to sigma 2 receptor in rat PC12 cells assessed as inhibition constant

T1 sequence (Q5BJF2 whole entry): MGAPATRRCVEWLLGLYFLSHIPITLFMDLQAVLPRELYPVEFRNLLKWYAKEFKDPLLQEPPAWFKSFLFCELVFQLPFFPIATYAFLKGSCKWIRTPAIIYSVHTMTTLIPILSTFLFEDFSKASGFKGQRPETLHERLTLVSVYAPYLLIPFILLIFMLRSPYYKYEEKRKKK
T2 sequence (Q99720 whole entry): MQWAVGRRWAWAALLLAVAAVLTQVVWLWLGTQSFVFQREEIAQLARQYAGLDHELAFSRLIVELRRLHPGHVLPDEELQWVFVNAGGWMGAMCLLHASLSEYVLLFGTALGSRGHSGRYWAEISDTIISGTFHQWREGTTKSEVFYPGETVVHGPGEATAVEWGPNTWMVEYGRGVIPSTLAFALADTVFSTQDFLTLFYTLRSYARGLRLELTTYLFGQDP

| SMILES | Ki [1] [nM] | Ki [2] [nM] | Ki [3] [nM] | Ki [4] [nM] | Ki [5] [nM] |
| --- | --- | --- | --- | --- | --- |
| O=C(OCc1cccc(F)c1)N1CC[C@@H]2C[C@H]1c1cc(N3CCN(CCCF)CC3)ccc12 | 21.2 | 17.2 | – | – | – |
| O=C(OCc1ccccc1)N1CC[C@@H]2C[C@H]1c1cc(N3CC4CCC(C3)N4CCCF)ccc12 | 17.7 | 70.4 | – | – | – |
| CN(C)C1CCN(c2ccc3c(c2)[C@@H]2C[C@H]3CCN2C(=O)OCc2ccccc2)CC1 | – | 140 | 31.5 | – | – |
| COCCN1CCN(c2ccc3c(c2)[C@H]2C[C@@H]3CCN2C(=O)OCc2ccccc2)CC1 | 129 | 312 | – | – | – |
| O=C(OCc1ccccc1)N1CC[C@@H]2C[C@H]1c1cc(N3CCN(C4CCC4)CC3)ccc12 | 12.4 | 32.9 | – | – | – |
| O=C(OCc1ccc(C(F)(F)F)cc1)N1CC[C@@H]2C[C@H]1c1cc(N3CCN(CCCF)CC3)ccc12 | 20.9 | 67.9 | – | – | – |
| CN(C)CCCOC1CN(c2ccc3c(c2)[C@@H]2C[C@H]3CCN2C(=O)OCc2ccccc2)C1 | 57.8 | 118 | – | – | – |
| CCN(CC)C(=O)CCN1CCN(c2ccc3c(c2)[C@@H]2C[C@H]3CCN2C(=O)OCc2ccccc2)CC1 | – | – | 12.4 | 197 | – |
| CNCCC(=O)N1CCN(c2ccc3c(c2)[C@@H]2C[C@H]3CCN2C(=O)OCc2ccccc2)CC1 | – | – | 110 | 189 | – |
| O=C(/C=C/c1ccccc1)N1CC[C@@H]2C[C@H]1c1cc(N3CCN(CCCF)CC3)ccc12 | – | 185 | 53.3 | – | – |
| CCCCN1C[C@@H]2CN(c3ccc4c(c3)[C@@H]3C[C@H]4CCN3C(=O)OCc3ccccc3)C[C@@H]2C1 | 28.4 | 50.2 | – | – | – |
| Clc1ccc2c(c1)C1CC2CCCN1CCc1ccccc1 (configuration not stated) | – | – | – | – | 248 |
| CN(C)CCN1CCN(c2ccc3c(c2)[C@@H]2C[C@H]3CCN2C(=O)OCc2ccccc2)CC1 | – | – | 52 | 83.4 | – |
| O=C(OCc1ccccc1)N1CC[C@H]2C[C@@H]1c1cc(N3CCN(C4CCC4)CC3)ccc12 | 34.3 | 50.7 | – | – | – |
| CN1CC(C(=O)N2CCN(c3ccc4c(c3)[C@@H]3C[C@H]4CCN3C(=O)OCc3ccccc3)CC2)C1 | – | – | 35.2 | 53.1 | – |
| O=C(OCc1ccc(Cl)cc1)N1CC[C@@H]2C[C@H]1c1cc(N3CCN(CCCF)CC3)ccc12 | 27.1 | 94.9 | – | – | – |
| CN1CC(CN2CCN(c3ccc4c(c3)[C@@H]3C[C@H]4CCN3C(=O)OCc3ccccc3)CC2)C1 | – | 94.1 | 24.4 | – | – |

Continued, values first:

| Ki [1] [nM] | Ki [2] [nM] | Ki [3] [nM] | Ki [4] [nM] | Ki [5] [nM] | SMILES |
| --- | --- | --- | --- | --- | --- |
| 75.3 | 510 | – | – | – | O=C(OCc1ccccc1)N1CC[C@@H]2C[C@H]1c1cc(N3CCN(CCO)CC3)ccc12 |
| 22.2 | 11.7 | – | – | – | O=C(OCc1ccccc1)N1CC[C@@H]2C[C@H]1c1cc(N3CCCN(CCCF)CC3)ccc12 |
| – | – | 8 | 59.2 | – | COCCCN1CCN(c2ccc3c(c2)[C@@H]2C[C@H]3CCN2C(=O)OCc2ccccc2)CC1 |
| – | 57.6 | 397 | – | – | O=C(CCc1ccccc1)N1CC[C@@H]2C[C@H]1c1cc(N3CCN(CCCF)CC3)ccc12 |
| 24.3 | 81.7 | – | – | – | O=C(OCc1ccccc1)N1CC[C@H]2C[C@@H]1c1cc(N3CCN(CCCF)CC3)ccc12 |
| 9.2 | 37.7 | 9.2 | – | – | O=C(OCc1ccccc1)N1CC[C@@H]2C[C@H]1c1cc(N3CCN(CCCF)CC3)ccc12 |
| 201 | 1740 | – | – | – | O=C(OCc1ccccc1)N1CC[C@H]2C[C@@H]1c1cc(N3CCN(CCO)CC3)ccc12 |
| – | – | 60.9 | 173 | – | CNCCN1CCN(c2ccc3c(c2)[C@@H]2C[C@H]3CCN2C(=O)OCc2ccccc2)CC1 |
| 47 | 193 | – | – | – | COCCN1CCN(c2ccc3c(c2)[C@@H]2C[C@H]3CCN2C(=O)OCc2ccccc2)CC1 |

Source: ChEMBL document CHEMBL5620364, “Structure-affinity relationships of stereoisomers of norbenzomorphan-derived σ2R/TMEM97 modulators” (Eur J Med Chem, 2023)
